Format in all cases: cell-based
For one assay, the system named is phosphorylation of ACC. The experiment in a line: Western blot of ACC phosphorylation in HEP3B human hepatoma cells. As to conditions: resveratrol-treated cells with SIRT1 overexpressed or knocked down. Here is the method:
Similar results were also observed for HEP3B human hepatoma cells. In this case phosphorylation of ACC was measured in cells were SIRT1 was overexpressed (see FIG. 9, 4 right lanes) and in cells were SIRT1 was knocked down (FIG. 9, left lane). […] Tubulin served as a loading control.

The next assay concerns 3T3-L1 cells. The experiment in a line: Adipocyte differentiation and fat content by Oil Red O staining, 3T3-L1 cells. Here is the method: To obtain evidence that resveratrol affects fat metabolism in a physiologically relevant cell, we examined the effect of increasing concentrations of resveratrol on 3T3-L1 and NIH3T3 cell differentiation and fat content. 3T3-L1 or NIH3T3 cells were grown to confluence and allowed to pack in for 2 days at which point differentiation was initiated by addition of isobutylmethylxanthine, dexamethasone and insulin in the presence of vehicle (ethanol alone) or resveratrol at concentrations of 0, 12.5 and 25 μM. After 10 days of differentiation, fat content was assessed by Oil Red O staining, as described below. The results, which are shown in FIG. 12, indicate that concentrations of 25 μM or higher resveratrol decreased the quantity of cellular fat in 3T3-L1 and NIH3T3 cells. The results in NIH3T3 cells confirm the results obtained in C. elegans.
We then infected 3T3 preadipoctyes/adipocytes with pMX alone or pMX encoding PPAR-γ and examined the effect of resveratrol on 3T3 cell differentiation. 3T3-L1 and NIH3T3 cells were infected with a plasmid expressing GFP or PPAR-γ and grown to confluence. […]
3T3-L1 and NIH3T3 cells were maintained in DMEM plus 10% calf serum. […] The staining of adipocytes with Oil Red-O and quantitation was performed as described previously (Ramirez-Zacarias J L, Castro-Munozledo F, Kuri-Harcuch W. Histochemistry. 1992 July; 97(6):493-7). […]

The test system of assay [1] is TNF-alpha treated adipocytes. Kind of assay: Radioactive glucose uptake in TNF-alpha treated, insulin resistant adipocytes. As to conditions: resveratrol 5 μM or 15 μM; roziglitazone 4 μM (positive control); with TNF-alpha. On the procedure: Adipocytes were treated with TNF-alpha to induce insulin resistance as described in Kabayama et al., Glycobiology 15:21-29 (2005) and Wu et al., Mol. Cell 3:151-8 (1999).

Molecules are shown by their SMILES.

As for `Oc1ccc(/C=C/c2cc(O)cc(O)c2)cc1` [resveratrol, 3,5,4′-Trihydroxy-trans-stilbene], the “phosphorylation of ACC” value in the assay on phosphorylation of ACC is listed as “Phosphorylation of ACC was not affected”. Further, the “concentrations that decreased the quantity of cellular fat” value in the assay on 3T3-L1 cells (10 days of differentiation, 0, 12.5 and 25 μM tested, Oil Red O) is no less than 25 µM. The “inhibition of 3T3 preadipocyte differentiation” value with 3T3-L1 cells (cells overexpressing PPAR-γ, 0, 25 or 50 μM, eight days of differentiation) is given as “partially negated inhibition of 3T3 preadipocyte differentiation by resveratrol”. In addition, in assay [1], the “radioactive glucose uptake / insulin sensitivity” value is given as “partially rescued the TNF-alpha treated adipocytes restoring insulin sensitivity”.

These data come from patent US9597347B2, “Compositions for treating obesity and insulin resistance disorders” (President and Fellows of Harvard College, priority 2003, dated 2017).
